The values that follow come from ChEMBL document CHEMBL1150047, “New sesquiterpene quinols from a Micronesian sponge, Aka sp” (J Nat Prod, 2003).

Molecules are shown by their SMILES. Structures can show the parent of a compound that is named as a salt. Activity calls are given as the source filed them. The rule behind the calls is not given here.

The target in test [1] is Cyclin-dependent kinase 4/cyclin D1 (Homo sapiens) (UniProt P11802+P24385). Nature of the test: Inhibition of CDK4/Cyclin D1 complex formation at 10 ug/mL. In kind it is protein-complex assay.
For test [2], the target named is Cyclin-dependent kinase 4/cyclin D1 (Homo sapiens, UniProt P11802). Description: Inhibition of CDK4/Cyclin D1 complex formation.
Chain of Cyclin-dependent kinase 4/cyclin D1 (P11802 whole entry): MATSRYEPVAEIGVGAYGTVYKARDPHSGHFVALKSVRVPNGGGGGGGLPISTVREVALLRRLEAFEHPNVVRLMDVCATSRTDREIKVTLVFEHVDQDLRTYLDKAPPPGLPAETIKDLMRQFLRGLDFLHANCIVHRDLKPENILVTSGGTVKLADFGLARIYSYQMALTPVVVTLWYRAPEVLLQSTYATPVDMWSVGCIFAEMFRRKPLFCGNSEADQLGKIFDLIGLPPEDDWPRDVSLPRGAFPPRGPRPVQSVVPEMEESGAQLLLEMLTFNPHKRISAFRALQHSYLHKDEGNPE
Chain of Cyclin-dependent kinase 4/cyclin D1 (P24385 whole entry, further chain): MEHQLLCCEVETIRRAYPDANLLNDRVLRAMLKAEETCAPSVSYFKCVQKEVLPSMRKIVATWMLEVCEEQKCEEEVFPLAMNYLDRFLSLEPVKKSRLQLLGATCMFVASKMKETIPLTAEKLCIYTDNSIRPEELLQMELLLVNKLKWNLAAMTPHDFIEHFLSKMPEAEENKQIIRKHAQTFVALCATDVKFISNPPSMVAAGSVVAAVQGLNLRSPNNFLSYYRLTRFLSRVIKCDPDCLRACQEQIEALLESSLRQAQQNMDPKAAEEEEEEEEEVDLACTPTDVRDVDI

In the case of `COCc1cc(O)c(O)c2c1[C@@]1(C)CC[C@H]3C(C)(C)CCC[C@]3(C)[C@H]1C2`, in test [1], the result was inactive.

One may read the IC50 as the midpoint of a concentration-inhibition curve. Low readings indicate higher potency, high ones lower potency. With `CC(CC[C@@H](C)[C@H]1CC[C@H]2[C@@H]3C[C@H](OS(=O)(=O)O)[C@H]4C[C@H](OS(=O)(=O)O)[C@@H](OS(=O)(=O)O)C[C@]4(C)[C@H]3CC[C@]12C)C(C)(C)C` (some centres undefined) [HALISTANOL SULFATE], in test [2], inhibition was half-maximal at 12.6 µM (IC50). With `CC1(C)CCC[C@]2(C)[C@@H](Cc3c(O)ccc(O)c3C=O)[C@](C)(O)CC[C@@H]12`, the result in test [1] was inactive. `CC1=CC[C@H]2C(C)(C)CCC[C@]2(C)[C@H]1Cc1cc(O)c(O)c(C=O)c1OS(=O)(=O)O` [SIPHONODICTYAL C] showed an IC50 in test [2] of 19.5 µM.
